Series [1] deals with BDBV mucin-domain-deleted glycoprotein pseudotyped VSV. Briefly: microbe, parasite or virus in culture. Type of series: cell-based, Bundibugyo ebolavirus. Conditions: Vesicular stomatitis virus, Vero, read-out: EC50 BDBV.
Another series is described as follows: in vitro. Conditions: African green monkey, CC50.
For series [2], the system named is EBOV mucin-domain-deleted glycoprotein pseudotyped VSV. Briefly: microbe, parasite or virus in culture. Type of series: cell-based, Zaire ebolavirus. Conditions: Zaire ebolavirus, Vero, read-out: EC50 EBOV.

pEC50: −log10 of the molar value.

As a reminder, the pEC50 is the EC50 on a negative log10 scale, so that one unit is a factor of ten. For `O=C(N1CCC(NCc2ccccc2)CC1)C12CC3CC(C1)CC(c1ccccc1)(C3)C2` [Example A49, N-Benzyl-1-[(3-phenyladamantan-1-yl)carbonyl]piperidin-4-amine], the pEC50 in series [1] was 6.54; in series [2], 6.68. The CC50 in “in vitro” was 10 µM.
With `O=C(CC12CC3CC(CC(C3)C1)C2)N1CCC2(CCN(Cc3ccccc3)C2)C1` (stereo not drawn) [Example A50, 2-(Adamantan-1-yl)-1-{7-benzyl-2,7-diazaspiro[4.4]nonan-2-yl}ethan-1-one], the pEC50 is 5.48 in series [1] and 5.54 in series [2]. The CC50 in “in vitro” worked out at 54.9 µM.
On to `O=C(CC12CC3CC(CC(C3)C1)C2)NC1CCN(Cc2ccccc2)CC1` [Example A51], for which the figures for the pEC50 in series [1] and in series [2] were < 5.00 and 5.05, respectively. In the series “in vitro”, this molecule gave a CC50 of 10 µM.
In the same order, the values of `O=C(CC12CC3CC(CC(C3)C1)C2)N[C@@H]1CCN(Cc2ccccc2)C1` [Example A52] are 5.40, 5.31 and > 10 µM.
In the same order, the values of `O=C(CC12CC3CC(CC(C3)C1)C2)NCC(=O)NC1CCN(Cc2ccccc2)CC1` [Example A54] are 5.00, 5.40 and > 10 µM.
In the same order, the values of `COC(=O)c1ccc(COc2ccccc2CN2CCC(NC(=O)CNC(=O)CC34CC5CC(CC(C5)C3)C4)CC2)cc1` [Example A55] are 5.59, 5.54 and > 10 µM.
In the case of `O=C(CC12CC3CC(CC(C3)C1)C2)NCC(=O)N[C@@H]1CCN(Cc2ccccc2)C1` [Example A56], the pEC50 in series [1] was 5.00; in series [2] it was 5.51. For the same molecule, the CC50 in “in vitro” is > 10 µM.
In the same order, the values of `COC(=O)c1ccc(COc2ccccc2CN2CC3CC2CN3C(=O)CNC(=O)CC23CC4CC(CC(C4)C2)C3)cc1` (stereo not drawn) [Example A58] are 5.10, 6.19 and > 10 µM.
Consider `NC1CCN(C(=O)C23CC4CC(C2)CC(c2ccccc2)(C4)C3)CC1` [Example A61], for which the figures for the pEC50 in series [1] and in series [2] were 7.10 and 6.85, respectively. Further, the CC50 in the series “in vitro” was > 10 µM.
In the same order, the values of `O=C(N1CC2CCNC2C1)C12CC3CC(C1)CC(c1ccccc1)(C3)C2` (stereo not drawn) [Example A62] are 6.96, 6.80 and 30 µM.
For `O=C(N1CCC2(CCNC2)C1)C12CC3CC(C1)CC(c1ccccc1)(C3)C2` (stereo not drawn) [Example A64] the same measures were 6.74, 6.15 and > 10 µM.
For `O=C(N1CC2CC1CN2)C12CC3CC(C1)CC(c1ccccc1)(C3)C2` (stereo not drawn) [Example A65] the same measures were 7.05, 7.05 and > 10 µM.
For `O=C(N1CCCNCC1)C12CC3CC(C1)CC(c1ccccc1)(C3)C2` [Example A66], the values for the pEC50 in series [1] and in series [2] were 7.00 and 6.80, respectively. Moreover, the CC50 in “in vitro” is > 10 µM.
For `COc1ccc(C23CC4CC(CC(C(=O)NC5CCNCC5)(C4)C2)C3)cc1` [Example A67] the same measures were 6.39, 6.41 and > 10 µM.
For `O=C(NC1CCNCC1)C12CC3CC(C1)CC(c1ccc(Cl)cc1)(C3)C2` [Example A69] the same measures were 6.62, 6.66 and 22.4 µM.
As to `O=C(CC12CC3CC(C1)CC(c1ccccc1)(C3)C2)NC1CCNCC1` [Example A70], the pEC50 in series [1] is 6.72; in series [2], 6.31. Besides, the CC50 in “in vitro” is > 50 µM.
For the molecule `CC12CC3CC(C(=O)NC4CNC4)(C1)CC(c1ccccc1)(C3)C2` (stereo not drawn) [Example A72], the pEC50 in series [1] is 6.54; in series [2], 6.55. In addition, the CC50 in “in vitro” is 17.4 µM.
`CC12CC3(C)CC(C(=O)NC4CCNCC4)(C1)CC(c1ccccc1)(C2)C3` [Example A73]: the pEC50 in series [1] is 6.43; in series [2] it was 6.49. This molecule also had a CC50 in “in vitro” of 13 µM.
In the case of `O=C(NC1CCNCC1)C12CC3CC(C1)CC(c1ccc(O)cc1)(C3)C2` [Example A74], the pEC50 is < 6.00 in series [1] and 5.76 in series [2]. The CC50 in “in vitro” was determined as 14 µM.
Turning to `O=C(NC1CCNCC1)C12CC3CC(C1)CC(c1ccc(F)cc1)(C3)C2` [Example A75], the pEC50 in series [1] and in series [2] was 6.52 each time. This molecule also showed a CC50 in the series “in vitro” of 17.7 µM.
In the case of `CC12CC3CC(C(=O)N[C@H]4CC[C@@H](N)CC4)(C1)CC(c1ccccc1)(C3)C2` (stereo partly drawn) [Example A77], the values for the pEC50 in series [1] and in series [2] were 6.66 and 6.92, respectively. The molecule further registered a CC50 in the series “in vitro” of 8.7 µM.
In the same order, the values of `CC12CC3CC(C(=O)NCCN)(C1)CC(c1ccccc1)(C3)C2` (stereo not drawn) [Example A79] are 6.54, 6.59 and 4.2 µM.
For `C[C@H]1CN(C(=O)C23CC4CC(C)(C2)CC(c2ccccc2)(C4)C3)CCN1` (stereo partly drawn) [Example A82] the same measures were 6.80, 6.89 and 4.5 µM.
For `C[C@H]1CNCCN1C(=O)C12CC3CC(C)(C1)CC(c1ccccc1)(C3)C2` (stereo partly drawn) [Example A83] the same measures were 6.74, 7.00 and 12.9 µM.
`N[C@H]1CC[C@H](NC(=O)C2C3CC4CC2CC(c2ccccc2)(C4)C3)CC1` (stereo partly drawn) [Example A84]: the results for the pEC50 in series [1] and in series [2] were 6.96 and 6.84, respectively. The molecule further returned a CC50 in “in vitro” of 9 µM.
In the case of `C[C@@H]1CN(C(=O)C23CC4CC(C)(C2)CC(c2ccccc2)(C4)C3)C[C@H](C)N1` (stereo partly drawn) [Example A86], the pEC50 in series [1] was 6.74; in series [2] it was 6.81. In “in vitro”, this molecule gave a CC50 of 3.9 µM.
In the case of `N[C@H]1CC[C@H](NC(=O)C23CC4CC2CC(c2ccccc2)(C4)C3)CC1` (stereo partly drawn) [Example A87], the values for the pEC50 in series [1] and in series [2] were 6.72 and 6.85, respectively. Moreover, in “in vitro”, the CC50 was found to be 1.4 µM.
As for `O=C(NC1CCNCC1)C12CC3CC1CC(c1ccccc1)(C3)C2` (stereo not drawn) [Example A88], the pEC50 in series [1] was 6.30; in series [2] it was 6.44. This molecule also returned a CC50 in “in vitro” of 12.5 µM.
As for `CC12CC3CC(C(=O)NC4CC5(CNC5)C4)(C1)CC(c1ccccc1)(C3)C2` (stereo not drawn) [Example A89], the pEC50 in series [1] was 6.06; in series [2], 6.60. In addition, the CC50 in the series “in vitro” came out at 40.7 µM.
For `CC12CC3CC(C(=O)NC4CC5(CC(N)C5)C4)(C1)CC(c1ccccc1)(C3)C2` (stereo not drawn) [Example A90] the same measures were 6.70, 7.30 and 59 µM.
`CC12CC3CC(C(=O)N4CC5(CC(N)C5)C4)(C1)CC(c1ccccc1)(C3)C2` (stereo not drawn) [Example A91]: the pEC50 is 6.72 in series [1] and 6.92 in series [2]. This molecule also had a CC50 in the series “in vitro” of 17.4 µM.
As to `CC12CC3CC(C(=O)NC4C[C@H]5CC[C@H](C4)N5)(C1)CC(c1ccccc1)(C3)C2` (stereo partly drawn) [Example A92], the pEC50 in series [1] is 6.15; in series [2], 6.72. In “in vitro”, this molecule had a CC50 of 10.8 µM.
In the case of `CC12CC3CC(C(=O)N4C5CCC4CC(N)C5)(C1)CC(c1ccccc1)(C3)C2` (stereo not drawn) [Example A93], the pEC50 is 6.44 in series [1] and 6.68 in series [2]. Further, the CC50 in the series “in vitro” came out at 12.2 µM.
On to `N[C@H]1CC[C@H](NC(=O)C23CC4CC(C2)CC(C(F)(F)F)(C4)C3)CC1` [Example A94], for which the pEC50 is 6.06 in series [1] and 6.00 in series [2]. In addition, the CC50 in “in vitro” was determined as 5.1 µM.
For `CC12CC3CC(C(=O)NCC4CCNCC4)(C1)CC(c1ccccc1)(C3)C2` (stereo not drawn) [Example A95], the pEC50 was 6.01 in series [1] and 6.31 in series [2]. The molecule further displayed a CC50 in “in vitro” of 23.1 µM.
In the same order, the values of `CC12CC3CC(C(=O)N[C@H]4CC[C@H](CN)CC4)(C1)CC(c1ccccc1)(C3)C2` (stereo partly drawn) [Example A96] are 7.10, 7.52 and 11.6 µM.
Take `N[C@H]1CC[C@H](NC(=O)CC2(c3ccccc3)C3CC4CC(C3)CC2C4)CC1` (stereo partly drawn) [Example A97]: the pEC50 in series [1] is 6.60; in series [2], 6.47. In “in vitro”, the CC50 is 100 µM.
Take `N[C@H]1CC[C@@H](NC(=O)CC2(c3ccccc3)C3CC4CC(C3)CC2C4)CC1` (stereo partly drawn) [Example A98]: the pEC50 in series [1] was 6.24; in series [2], 5.94. For the same molecule, the CC50 in “in vitro” was found to be 11.3 µM.
Regarding `O=C(CC1(c2ccccc2)C2CC3CC(C2)CC1C3)NC1CCNCC1` (stereo not drawn) [Example A99], the negative logarithm of the EC50 (pEC50) was 6.72 in series [1] and 6.16 in series [2]. The CC50 in “in vitro” worked out at 26.7 µM.
For the molecule `Cc1cccc(C23CC4CC(CC(C(=O)N[C@H]5CC[C@H](N)CC5)(C4)C2)C3)c1` [Example A100], the pEC50 in series [1] was 6.74; in series [2] it was 6.66. The same molecule came in with a CC50 in the series “in vitro” of 6.3 µM.
On to `CC12CC3CC(C(=O)N[C@H]4[C@@H]5CNC[C@@H]54)(C1)CC(c1ccccc1)(C3)C2` (stereo partly drawn) [Example A102], for which the pEC50 in series [1] was 6.68; in series [2], 6.92. In the series “in vitro”, this molecule returned a CC50 of 29 µM.
As for `CC12CC3CC(C(=O)Nc4ccc(CN)cc4)(C1)CC(c1ccccc1)(C3)C2` (stereo not drawn) [Example A103], the negative logarithm of the EC50 (pEC50) in series [1] was 6.55; in series [2], 7.15. In “in vitro”, the CC50 was determined as 7.9 µM.
For `CN(C(=O)C12CC3CC(C)(C1)CC(c1ccccc1)(C3)C2)C1CCNCC1` (stereo not drawn) [Example A104] the same measures were 6.66, 7.22 and 66 µM.
For `CC(C)C12CC3CC(C(=O)N[C@H]4CC[C@H](N)CC4)(CC(c4ccccc4)(C3)C1)C2` (stereo partly drawn) [Example A105] the same measures were 5.98, 6.85 and 35 µM.
For `C[C@H]1C[C@H](NC(=O)C23CC4CC(C)(C2)CC(c2ccccc2)(C4)C3)CCN1` (stereo partly drawn) [Example A107] the same measures were 6.52, 7.34 and 14.7 µM.
Consider `CC12CC3CC(C(=O)N[C@@H]4CCNC[C@H]4F)(C1)CC(c1ccccc1)(C3)C2` (stereo partly drawn) [Example A108], for which the pEC50 in series [1] is 6.68; in series [2], 7.60. Besides, the CC50 in the series “in vitro” turned out to be 16.5 µM.

(Values after patent publication US12240857B2 (priority 2017, dated 2025).)
